From ChEMBL document CHEMBL5241075, “Advancement of chimeric hybrid drugs to cure malaria infection: An overview with special emphasis on endoperoxide pharmacophores” (Eur J Med Chem, 2021)
Values after ≈ are worked out from the molar mass of the structure shown.

Columns and labels:
[1] = tested on: Plasmodium falciparum; test: Antiplasmodial activity against chloroquine resistant Plasmodium falciparum; type: functional, organism-based
[2] = tested on: Plasmodium falciparum; test: Antiplasmodial activity against Plasmodium falciparum D6; type: functional, organism-based
[3] = tested on: Plasmodium falciparum; test: Antiplasmodial activity against Plasmodium falciparum W2; type: functional, organism-based
[4] = tested on: Plasmodium falciparum; test: Antiplasmodial activity against Plasmodium falciparum NF54; type: functional, organism-based
[5] = tested on: Plasmodium falciparum; test: Antiplasmodial activity against Plasmodium falciparum DD2; type: functional, organism-based
[6] = Stability of compound at pH 2 assessed as half life; type: physicochemical; settings: buffer
[7] = tested on: Plasmodium falciparum; test: Antiplasmodial activity against Plasmodium falciparum Nigerian; type: functional, organism-based
[8] = tested on: Plasmodium falciparum; test: Antiplasmodial activity against Plasmodium falciparum FcM29; type: functional, organism-based
[9] = tested on: Plasmodium falciparum; test: Antimalarial activity against chloroquine resistant Plasmodium falciparum FcB1; type: functional, organism-based
[10] = tested on: Plasmodium falciparum; test: Antiplasmodial activity against Plasmodium falciparum 3D7; type: functional, organism-based
[11] = tested on: Plasmodium falciparum; test: Antiplasmodial activity against Plasmodium falciparum D10; type: functional, organism-based; settings: Plasmodium falciparum, D10
[12] = tested on: Plasmodium falciparum; test: Resistance index, ratio of IC50 for antiplasmodial activity against Plasmodium falciparum K1 to IC50 for antiplasmodial activity against Plasmodium falciparum D10; type: functional
[13] = tested on: Plasmodium falciparum; test: Antiplasmodial activity against Plasmodium falciparum K1; type: functional, organism-based; settings: Plasmodium falciparum, K1
[14] = read-out: ED50 (the source's name)

## C[C@@H]1CC[C@@H]2[C@]34OO[C@@](C)(CC[C@@H]13)O[C@H]4OC(Nc1ncccn1)[C@@]2(C)Br (some centres not stated)
[1]
  IC50: 0.16 ng/mL

## CCCC1O[C@@H]2O[C@]3(C)CC[C@H]4[C@H](C)CC[C@@H]([C@H]1C)[C@@]24OO3 (some centres not stated)
[2]
  IC50: 0.41 ng/mL (≈ 1.32 nM)
[3]
  IC50: 0.16 ng/mL (≈ 0.515 nM)

## COc1ccc2nc3cc(Cl)ccc3c(N3CCN(CCO[C@H]4O[C@@H]5O[C@]6(C)CC[C@H]7[C@H](C)CC[C@@H]([C@H]4C)[C@@]57OO6)CC3)c2c1
[4]
  IC50: 0.267 µM
[5]
  IC50: 0.43 µM

## CCOC1(C(F)(F)F)O[C@@H]2O[C@]3(C)CC[C@H]4[C@H](C)CC[C@@H]([C@H]1C)[C@@]24OO3 (some centres not stated)
[1]
  IC50: 0.0033 µM
[6]
  half-life: 20.8 days

## CC(CCC1OOC(C)(C)C(C)(CI)O1)NCCNc1ccnc2cc(Cl)ccc12 (configuration not stated)
[7]
  IC50: 0.188 µM
[8]
  IC50: 0.188 µM
[9]
  IC50: 0.188 µM

## CCOP(=O)(CCCN(O)C(=O)CCC(=O)N(CCCCNC(=O)CC[C@H]1O[C@@H]2O[C@]3(C)CC[C@H]4[C@H](C)CC[C@@H]([C@H]1C)C24OO3)CCCNC(=O)CC[C@@H]1O[C@H]2O[C@@]3(C)CC[C@@H]4[C@@H](C)CC[C@H]([C@@H]1C)C24OO3)OCC
[9]
  IC50: 0.65 µM

## C[C@@H]1CC[C@@H]2[C@]34OO[C@@](C)(CC[C@@H]13)O[C@H]4OC(Nc1cccc(F)c1)[C@@]2(C)Br (some centres not stated)
[1]
  IC50: 0.16 ng/mL

## C[C@@H]1CC[C@H]2[C@@H](C)C(O)(C(F)(F)F)O[C@@H]3O[C@]4(C)CC[C@@H]1[C@]32OO4 (some centres not stated)
[1]
  IC50: 0.0094 µM
[6]
  half-life: 31.7 days

## COc1ccc2nc3cc(Cl)ccc3c(NCCN3CCN(CCO[C@H]4O[C@@H]5O[C@]6(C)CC[C@H]7[C@H](C)CC[C@@H]([C@H]4C)[C@@]57OO6)CC3)c2c1
[4]
  IC50: 0.0141 µM
[5]
  IC50: 0.0504 µM

## COc1ccc2nc3cc(Cl)ccc3c(NCCNCCO[C@H]3O[C@@H]4O[C@]5(C)CC[C@H]6[C@H](C)CC[C@@H]([C@H]3C)[C@@]46OO5)c2c1
[4]
  IC50: 0.0026 µM
[5]
  IC50: 0.0353 µM

## Clc1cc(NCCCN[C@@H]2C[C@@H]3CCC4(OO[C@@]5(c6ccccc6)CC(c6ccccc6)=C[C@H]5O4)[C@@H]3C2)c2ncccc2c1 (some centres not stated)
[7]
  IC50: 0.031 µM
[8]
  IC50: 0.031 µM
[9]
  IC50: 0.031 µM

## Clc1cc(NCCNC2CCC3(CC2)OO[C@@]2(c4ccccc4)CC(c4ccccc4)=C[C@H]2O3)c2ncccc2c1 (mixture of isomers)
[7]
  IC50: 0.022 µM
[8]
  IC50: 0.022 µM
[9]
  IC50: 0.022 µM

## COc1ccc2nc3cc(Cl)ccc3c(N3CCN(CCO[C@H]4O[C@@H]5O[C@]6(C)CC[C@H]7[C@H](C)CC[C@@H]([C@H]4C)[C@@]57OO6)C(C)C3)c2c1 (some centres not stated)
[4]
  IC50: 0.017 µM
[5]
  IC50: 0.0413 µM

## C[C@@H]1CC[C@H]2[C@@H](C)C(OC(=O)CCC(=O)O)(C(F)(F)F)O[C@@H]3O[C@]4(C)CC[C@@H]1[C@]32OO4 (some centres not stated)
[1]
  IC50: 0.0041 µM
[6]
  half-life: 1.25 days

## C1CCCC2(CC1)OOC1(CCN(c3nc(N4CCOCC4)nc(N4CCOCC4)n3)CC1)OO2
[10]
  IC50: 0.00571 µM

## CCOP(=O)(CCCN(O)C(=O)CC[C@H]1O[C@@H]2O[C@]3(C)CC[C@H]4[C@H](C)CC[C@@H]([C@H]1C)C24OO3)OCC
[9]
  IC50: 28 µM

## COC1(C(F)(F)F)O[C@@H]2O[C@]3(C)CC[C@H]4[C@H](C)CC[C@@H]([C@H]1C)[C@@]24OO3 (some centres not stated)
[1]
  IC50: 0.0008 µM
[6]
  half-life: 27.5 days

## C[C@H]1[C@@H](OC(=O)CCC(=O)Oc2ccc(Nc3ncnc4ccccc34)cc2)O[C@@H]2O[C@]3(C)CC[C@H]4[C@H](C)CC[C@@H]1[C@@]24OO3
[10]; read-out: EC50
  EC50: 0.0038 µM

## COc1ccc2nc3cc(Cl)ccc3c(NCCN3CCNCC3)c2c1
[4]
  IC50: 0.0073 µM
[5]
  IC50: 0.142 µM

## C[C@@H]1CC[C@H]2[C@@H](C)C(Oc3ccccc3)O[C@@H]3O[C@]4(C)CC[C@@H]1[C@]32OO4 (some centres not stated)
[1]
  IC50: 0.0053 µM

## C1CCC2(C1)OOC1(CCN(c3nc(N4CCOCC4)nc(N4CCOCC4)n3)CC1)OO2
[10]
  IC50: 0.00552 µM

## C[C@H]1[C@@H](OCc2ccc(C(=O)O)cc2)O[C@@H]2O[C@@]3(C)CC[C@H]4[C@H](C)CC[C@@H]1[C@@]24OO3
[11]
  IC50: 0.006 µM
[10]; [14]
  EC50: 4 ng/mL
[12]
  Ratio IC50: 0.75
[13]
  IC50: 0.006 µM
[13]; [14]
  EC50: 1.4 ng/mL (≈ 3.35 nM)
